Read-outs that look alike come from different tables or passages of the source.
Legend:
[1] = diabetic animal model; cited from earlier work
human PPARalpha = molecular target: T1, human PPARalpha (Homo sapiens, UniProt Q07869); test: Cellular PPARalpha assay (HEK PPARalpha reporter cell line, luciferase); assay type: cell-based; conditions: GR-GAL4-humanPPARalpha-LBD
T1 construct: human PPARalpha receptor (amino acids S167-Y468); expressed in transfected cells; host or cells: HEK cells, stably transfected (pcDNA3, CMV promoter)
T1 sequence (Q07869 167-468): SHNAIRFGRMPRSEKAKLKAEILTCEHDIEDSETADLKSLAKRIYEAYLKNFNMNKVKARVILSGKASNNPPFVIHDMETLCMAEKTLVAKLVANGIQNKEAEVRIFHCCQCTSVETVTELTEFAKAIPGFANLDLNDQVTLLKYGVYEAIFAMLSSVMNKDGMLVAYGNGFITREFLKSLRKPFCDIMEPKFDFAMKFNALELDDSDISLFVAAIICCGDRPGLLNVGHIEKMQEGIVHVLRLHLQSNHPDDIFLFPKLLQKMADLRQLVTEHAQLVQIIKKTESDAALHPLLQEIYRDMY
Procedure: Determination of EC50 Values of PPAR Agonists in the Cellular PPARalpha Assay
(§1) The potency of substances which bind to human PPARalpha and activate it in an agonistic manner is analyzed using a stably transfected HEK cell line (HEK=human embryo kidney) which is referred to here as PPARalpha reporter cell line. It contains two genetic elements, a luciferase reporter element (pdeltaM-GAL4-Luc-Zeo) and a PPARalpha fusion protein (GR-GAL4-humanPPARalpha-LBD) which mediates expression of the luciferase reporter element depending on a PPARalpha ligand. The stably and constitutively expressed fusion protein GR-GAL4-humanPPARalpha-LBD binds in the cell nucleus of the PPARalpha reporter cell line via the GAL4 protein portion to the GAL4 DNA binding motifs 5′-upstream of the luciferase reporter element which is stably integrated in the genome of the cell line. There is only weak expression of the luciferase reporter gene in the absence of a PPARalpha ligand if fatty acid-depleted fetal calf serum (cs-FCS) is used in the assay. PPARalpha ligands bind and activate the PPARalpha fusion protein and thereby stimulate the expression of the luciferase reporter gene. The luciferase which is formed can be detected by means of chemiluminescence via an appropriate substrate.
The PPARalpha reporter cell line was prepared in two stages. Firstly, the luciferase reporter element was constructed and stably transfected into HEK cells. For this purpose, five binding sites of the yeast transcription factor GAL4 (Accession # AF264724) were cloned in 5′-upstream of a 68 bp-long minimal MMTV promoter (Accession # V01175). The minimal MMTV promoter section contains a CCAAT box and a TATA element in order to enable efficient transcription by RNA polymerase II. The cloning and sequencing of the GAL4-MMTV construct took place in analogy to the description of Sambrook J. et al. (Molecular cloning, Cold Spring Harbor Laboratory Press, 1989). Then the complete Photinus pyralis gene (Accession # M15077) was cloned in 3′-downstream of the GAL4-MMTV element. After sequencing, the luciferase reporter element consisting of five GAL4 binding sites, MMTV promoter and luciferase gene was recloned into a plasmid which confers zeocin resistance in order to obtain the plasmid pdeltaM-GAL4-Luc-Zeo. This vector was transfected into HEK cells in accordance with the statements in Ausubel, F. M. et al. (Current protocols in molecular biology, Vol. 1-3, John Wiley & Sons, Inc., 1995).
In a second step, the PPARalpha fusion protein (GR-GAL4-humanPPARalpha-LBD was introduced into the stable cell clone described. For this purpose, initially the cDNA coding for the N-terminal 76 amino acids of the glucocorticoid receptor (Accession # P04150) was linked to the cDNA section coding for amino acids 1-147 of the yeast transcription factor GAL4 (Accession # P04386). The cDNA of the ligand-binding domain of the human PPARalpha receptor (amino acids S167-Y468; Accession # S74349) was cloned in at the 3′-end of this GR-GAL4 construct. The fusion construct prepared in this way (GR-GAL4-humanPPARalpha-LBD) was recloned into the plasmid pcDNA3 (Invitrogen) in order to enable constitutive expression therein by the cytomegalovirus promoter. This plasmid was linearized with a restriction endonuclease and stably transfected into the previously described cell clone containing the luciferase reporter element. The finished PPARalpha reporter cell line which contains a luciferase reporter element and constitutively expresses the PPARalpha fusion protein (GR-GAL4-human PPARalpha-LBD) was isolated by selection with zeocin (0.5 mg/ml) and G418 (0.5 mg/ml).
The activity of PPARalpha agonists is determined in a 3-day assay, which is described below: […]

human PPARdelta = molecular target: T2, human PPARdelta (Homo sapiens, UniProt Q03181); test: Cellular PPARdelta assay (HEK PPARdelta reporter cell line, luciferase); assay type: cell-based; conditions: GR-GAL4-humanPPARdelta-LBD
T2 construct: human PPARdelta receptor (amino acids S139-Y441); expressed in transfected cells; host or cells: HEK cells, stably transfected (pcDNA3, CMV promoter)
T2 sequence (Q03181 139-441): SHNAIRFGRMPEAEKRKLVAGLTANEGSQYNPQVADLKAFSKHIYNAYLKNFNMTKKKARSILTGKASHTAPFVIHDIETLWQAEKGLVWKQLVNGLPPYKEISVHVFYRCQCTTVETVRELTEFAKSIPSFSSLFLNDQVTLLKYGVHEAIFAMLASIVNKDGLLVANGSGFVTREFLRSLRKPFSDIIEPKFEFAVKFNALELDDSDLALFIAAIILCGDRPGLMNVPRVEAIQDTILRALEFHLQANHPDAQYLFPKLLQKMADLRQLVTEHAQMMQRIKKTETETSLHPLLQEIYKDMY
Procedure: Determination of EC50 Values of PPAR Agonists in the Cellular PPARdelta Assay
as §1, with “PPARdelta” for “PPARalpha”, “In analogy to the assay described for PPARalpha, the PPARdelta reporter cell line also” for “It”, “(GR-GAL4-humanPPARdelta-LBD)” for “(GR-GAL4-humanPPARalpha-LBD)”, “GR-GAL4-humanPPARdelta-LBD” for “GR-GAL4-humanPPARalpha-LBD”, “little” for “weak”, “stimulate” for “stimulate the”
The production of the stable PPARdelta reporter cell line is based on a stable HEK-cell clone which was stably transfected with a luciferase reporter element. This step was already described above in the section “construction of the PPARalpha reporter cell line”. In a second step, the PPARdelta fusion protein (GR-GAL4-humanPPARdelta-LBD was stably introduced into this cell clone. For this purpose, the cDNA coding for the N-terminal 76 amino acids of the glucocorticoid receptor (Accession # P04150) was linked to the cDNA section coding for amino acids 1-147 of the yeast transcription factor GAL4 (Accession # P04386). The cDNA of the ligand-binding domain of the human PPARdelta receptor (amino acids S139-Y441; Accession # L07592) was cloned in at the 3′-end of this GR-GAL4 construct. The fusion construct prepared in this way (GR-GAL4-humanPPARdelta-LBD) was recloned into the plasmid pcDNA3 (Invitrogen) in order to enable constitutive expression by the cytomegalovirus promoter. This plasmid was linearized with a restriction endonuclease and stably transfected into the previously described cell clone containing the luciferase reporter element. The resulting PPARdelta reporter cell line which contains a luciferase reporter element and constitutively expresses the PPARdelta fusion protein (GR-GAL4-human PPARdelta-LBD) was isolated by selection with zeocin (0.5 mg/ml) and G418 (0.5 mg/ml).
The activity of PPARdelta agonists is determined in a 3-day assay in exact analogy to the procedure already described for the PPARalpha reporter cell line except that the PPARdelta reporter cell line and a specific PPARdelta agonist was used as a standard to control test efficacy.

[2] = two weeks clinical trials in healthy volunteers; cited from earlier work
[3] = rhesus and cynomolgus monkeys; cited from earlier work
[4] = obese, insulin resistant rhesus monkeys; cited from earlier work

Compound | EC50 (human PPARalpha) [nM] | EC50 (human PPARdelta) [nM] | further results
CCCc1c(OCCCOc2ccc(OCC(=O)O)cc2)ccc(C(C)=O)c1O [Example L-165041] | – | – | plasma cholesterol [1]: raises
O=c1[nH]c(-c2ccc(OCc3sc(-c4ccc(C(F)(F)F)cc4)nc3CCCOCc3ccccc3)cc2Cl)no1 [Example 50, 3-{4-[4-(3-Benzyloxy-propyl)-2-(4-trifluoromethyl-phenyl)-thiazol-5-ylmethoxy]-2-chloro-phenyl}-4H-[1,2,4]oxadiazol-5-one] | 420 | 0.7 | –
CCCCc1nc(-c2ccc(C(F)(F)F)cc2)sc1COCc1ccc(-c2noc(=O)[nH]2)c(F)c1 [Example 28, 3-{4-[4-Butyl-2-(4-trifluoromethyl-phenyl)-thiazol-5-ylmethoxymethyl]-2-fluoro-phenyl}-4H-[1,2,4]oxadiazol-5-one] | 120 | 23 | –
Cc1oc(-c2ccc(-c3ccccc3)cc2)nc1COc1ccc(-c2noc(=O)[nH]2)c(Cl)c1 [Example 30, 3-[4-(2-Biphenyl-4-yl-5-methyl-oxazol-4-ylmethoxy)-2-chloro-phenyl]-4H-[1,2,4]oxadiazol-5-one] | 250 | 16 | –
CCCCc1nc(-c2ccc(C(F)(F)F)cc2)sc1COc1ccc(-c2noc(=O)[nH]2)c(OC)c1 [Example 18, 3-{4-[4-Butyl-2-(4-trifluoromethyl-phenyl)-thiazol-5-ylmethoxy]-2-methoxy-phenyl}-4H-[1,2,4]oxadiazol-5-one] | > 10000 | 15 | –
CCCCc1nc(-c2ccc(C(F)(F)F)cc2)sc1COc1ccc(-c2noc(=O)[nH]2)c(C(F)(F)F)c1 [Example 15, 3-{4-[4-Butyl-2-(4-trifluoromethyl-phenyl)-thiazol-5-ylmethoxy]-2-trifluoromethyl-phenyl}-4H-[1,2,4]oxadiazol-5-one] | 150 | 3 | –
Cc1nc(-c2ccc(C(F)(F)F)cc2)sc1CSc1ccc(-c2noc(=O)[nH]2)cc1 [Example 5, 3-{4-[4-Methyl-2-(4-trifluoromethyl-phenyl)-thiazole-5-ylmethylsulfanyl]-phenyl}-4H-[1,2,4]oxadiazole-5-one] | 1330 | 68 | –
O=c1[nH]c(-c2ccc(OCc3sc(-c4ccc(C(F)(F)F)cc4)nc3CCCCO)cc2Cl)no1 [Example 20, 3-{2-Chloro-4-[4-(4-hydroxy-butyl)-2-(4-trifluoromethyl-phenyl)-thiazol-5-ylmethoxy]-phenyl}-4H-[1,2,4]oxadiazol-5-one] | 1560 | 55 | –
Cc1nc(-c2ccc(C(F)(F)F)cc2)sc1COc1ccc(-c2noc(=O)[nH]2)c(Cl)c1 [Example 4, 3-{2-Chloro-4-[4-methyl-2-(4-trifluoromethyl-phenyl)-thiazole-5-ylmethoxy]-phenyl}-4H-[1,2,4]oxadiazole-5-one] | 1660 | 56 | –
CCCCc1nc(-c2ccc(C(F)(F)F)cc2)sc1COc1ccc(Cc2noc(=O)[nH]2)c(Cl)c1 [Example 10, 3-{4-[4-Butyl-2-(4-trifluoromethyl-phenyl)-thiazol-5-ylmethoxy]-2-chloro-benzyl}-4H-[1,2,4]oxadiazol-5-one] | 770 | 11 | –
CCCc1c(OCCCSc2nnc(SCC(=O)O)s2)ccc(C(C)=O)c1O [YM-16638] | – | – | plasma lipids [2]: acts in a similar manner; plasma lipids [3]: significantly lowers
Cc1sc(-c2ccc(S(F)(F)(F)(F)F)cc2)nc1CCOc1ccc(-c2noc(=O)[nH]2)c(Cl)c1 [Example 32] | 320 | 310 | –
COCCOCc1nc(-c2ccc(C(F)(F)F)cc2)sc1COc1ccc(-c2noc(=O)[nH]2)c(Cl)c1 [Example 34, 3-{2-Chloro-4-[4-(2-methoxy-ethoxymethyl)-2-(4-trifluoromethyl-phenyl)-thiazol-5-ylmethoxy]-phenyl}-4H-[1,2,4]oxadiazol-5-one] | 230 | 1 | –
Cc1cc(SCc2sc(-c3ccc(C(F)(F)F)cc3)nc2C)ccc1OCC(=O)O [GW501516] | – | – | HDL-cholesterol [4]: raises; insulin levels [4]: decreases; plasma LDL-cholesterol [4]: decreases; triglycerides [4]: decreases
CCCCc1nc(-c2ccc(C(F)(F)F)cc2)sc1COc1cc(F)c(-c2noc(=O)[nH]2)c(F)c1 [Example 13, 3-{4-[4-Butyl-2-(4-trifluoromethyl-phenyl)-thiazol-5-ylmethoxy]-2,6-difluoro-phenyl}-4H-[1,2,4]oxadiazol-5-one] | 360 | 10 | –

Source: patent publication US7709509B2, “Oxadiazolones and derivatives thereof as peroxisome proliferator-activated receptor (PPAR) delta agonists” (Sanofi-Aventis Deutschland GmbH, priority 2004, dated 2010)
